Assay results published in patent US11319306B2, “Compositions and methods for treating neurodegenerative diseases” (Azevan Pharmaceuticals, Inc., priority 2014, dated 2022).
One block for each molecule: values may come before it.

Molecular target: T1, human V1a receptor (Homo sapiens, UniProt P37288)
T1 construct: host or cells: CHO cells (hV1a cell line)
Experiment: Human vasopressin V1a receptor binding assay (3H-AVP competition, hV1a CHO cells)
Details: 3H-AVP competition, CHO cells expressing human V1a; for Ki: read-out: V1a Ki; for IC50: read-out: V1a Binding Affinity IC50
Experimental: Human vasopression V1a receptor binding assay. A cell line expressing the human V1a receptor in CHO cells (henceforth referred to as the hV1a cell line) was obtained from Dr. Michael Brownstein, NIMH, Bethesda, Md., USA. The hV1a cDNA sequence is described by Thibonnier et al., Journal of Biological Chemistry, 269, 3304-3310 (1994), and the expression method was the same as described by Morel et al. (1992). The hV1a cell line was grown in alpha-MEM with 10% fetal bovine serum and 250 ug/ml G418 (Gibco, Grand Island, N.Y., USA). For competitive binding assay, hV1a cells were plated into 6-well culture plate at 1:10 dilution from a confluency flask, and maintained in culture for at least two days. Culture medium was then removed, cells were washed with 2 ml binding buffer (25 mM Hepes, 0.25% BSA, 1×DMEM, PH=7.0). To each well, 990 μl binding buffer containing InM 3H-AVP was added, and followed by 10 μl series diluted Example compounds dissolved in DMSO. […] 100 nM cold AVP (Sigma) was used to assess non-specific binding. Cells were incubated for 45 minutes at 37° C., assay mixture was removed and each well was washed three times with PBS (pH=7.4). 1 ml 2% SDS was added per well and plates were let sit for 30 minutes. The whole content in a well was transferred to a scintillation vial. Each well was rinsed with 0.5 ml PBS which was then added to the corresponding vial. Scintillation fluid (Ecoscint, National Diagnostics, Atlanta, Ga.) was then added at 3 ml per vial. Samples were counted in a liquid scintillation counter (Beckman LS3801). IC50 values were calculated by Prism Curve fitting software.
All of the alkanedioic esters and amides exemplified in the foregoing examples dissolved in DMSO were tested in this assay. Binding curves were generated according to methods described by Thibonnier et al. (1994). [^3H]-AVP was added to the hV1a cell cultures followed by 10-fold dilutions of each test compound.

T1 sequence (P37288 whole entry): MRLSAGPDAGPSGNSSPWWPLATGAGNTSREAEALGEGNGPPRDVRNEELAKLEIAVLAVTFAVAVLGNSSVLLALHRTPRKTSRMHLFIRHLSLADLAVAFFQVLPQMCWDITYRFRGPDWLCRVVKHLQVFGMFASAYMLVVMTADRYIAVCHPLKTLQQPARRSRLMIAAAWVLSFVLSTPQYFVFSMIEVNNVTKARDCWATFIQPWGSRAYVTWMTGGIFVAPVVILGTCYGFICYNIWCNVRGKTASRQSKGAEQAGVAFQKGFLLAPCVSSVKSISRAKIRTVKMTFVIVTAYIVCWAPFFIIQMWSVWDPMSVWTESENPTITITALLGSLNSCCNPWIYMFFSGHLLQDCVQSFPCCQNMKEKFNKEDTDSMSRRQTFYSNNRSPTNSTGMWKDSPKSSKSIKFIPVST

Structure (SMILES): O=C(NC1(c2ccccc2)CCCCC1)C(CCC(=O)N1CCN(C2CCCCC2)CC1)N1C(=O)C(N2C(=O)OCC2c2ccccc2)C1C=Cc1ccccc1 (stereo not drawn) [Example 221G]
IC50: 1.5 nM
Ki: 0.93 nM

Structure (SMILES): O=C(NCc1cccc(C(F)(F)F)c1)C(CCC(=O)N1CCN(C2CCCCC2)CC1)N1C(=O)C(N2C(=O)OCC2c2ccccc2)C1C(Cl)=Cc1ccccc1 (stereo not drawn) [Example 226]
IC50: 0.49 nM
Ki: 0.3 nM

Structure (SMILES): CCN1CCN(C(=O)CCC(C(=O)NCc2cccc(C(F)(F)F)c2)N2C(=O)C(N3C(=O)OCC3c3ccccc3)C2C(Cl)=Cc2ccccc2)CC1 (stereo not drawn) [Example 228]
IC50: 13.6 nM
Ki: 8.35 nM

Structure (SMILES): CCCCN1CCN(C(=O)CCC(C(=O)NCc2cccc(C(F)(F)F)c2)N2C(=O)C(N3C(=O)OCC3c3ccccc3)C2C(Cl)=Cc2ccccc2)CC1 (stereo not drawn) [Example 229]
IC50: 1.53 nM
Ki: 0.94 nM

Structure (SMILES): CC(C)N1CCN(C(=O)CCC(C(=O)NCc2cccc(C(F)(F)F)c2)N2C(=O)C(N3C(=O)OCC3c3ccccc3)C2C(Cl)=Cc2ccccc2)CC1 (stereo not drawn) [Example 230]
IC50: 7.07 nM
Ki: 4.33 nM

Structure (SMILES): O=C(C(COCc1ccccc1)N1C(=O)C(N2C(=O)OCC2c2ccccc2)C1C=Cc1ccccc1)N1CCC(N2CCCCC2)CC1 (stereo not drawn) [Example 232]
IC50: 1.37 nM
Ki: 0.84 nM

Structure (SMILES): O=C(C(COCc1ccccc1)N1C(=O)C(N2C(=O)OCC2c2ccccc2)C1C=Cc1ccccc1)N1CCC(CCN2CCCCC2)CC1 (stereo not drawn) [Example 233]
IC50: 0.56 nM
Ki: 0.34 nM

Structure (SMILES): O=C([C@@H](CSCc1ccccc1)N1C(=O)[C@@H](N2C(=O)OC[C@@H]2c2ccccc2)[C@H]1/C=C/c1ccccc1)N1CCC(CCN2CCCCC2)CC1 [Example 238, (2S)-(Benzylthiomethyl)-2-[3(S)-(4(S)-phenyloxazolidin-2-on-3-yl)-4(R)-(2-styryl)azetidin-2-on-1-yl]acetic acid N-[4-[2-(piperid-1-yl)ethyl]piperidin-1-yl]amide]
IC50: 0.11 nM
Ki: 0.07 nM

Structure (SMILES): CCN1CCN(C(=O)CC[C@@H](C(=O)NC2(c3ccccc3)CCCC2)N2C(=O)[C@@H](N3C(=O)OC[C@@H]3c3ccccc3)[C@H]2/C=C/c2ccccc2)CC1 [Example 239]
IC50: 6.6 nM
Ki: 4 nM

Structure (SMILES): O=C(NC1(c2ccccc2)CCCC1)[C@H](CCC(=O)N1CCN(Cc2ccccc2)CC1)N1C(=O)[C@@H](N2C(=O)OC[C@@H]2c2ccccc2)[C@H]1/C=C/c1ccccc1 [Example 240]
IC50: 25 nM
Ki: 15.5 nM

Structure (SMILES): O=C(N[C@@H]1CCCc2ccccc21)[C@H](CCC(=O)N1CCN(C2CCCC2)CC1)N1C(=O)[C@@H](N2C(=O)OC[C@@H]2c2ccccc2)[C@H]1/C=C/c1ccccc1 [Example 241]
IC50: 2 nM
Ki: 1.24 nM

Structure (SMILES): COc1cccc(/C=C/[C@@H]2[C@H](N3C(=O)OC[C@@H]3c3ccccc3)C(=O)N2[C@@H](CCC(=O)N2CCN(C3CCCCC3)CC2)C(=O)N[C@@H]2CCCc3ccccc32)c1 [Example 242]
IC50: 2.2 nM
Ki: 1.36 nM

Structure (SMILES): O=C(N[C@@H]1CCCc2ccccc21)[C@H](CCC(=O)N1CCN(C2CCCCC2)CC1)N1C(=O)[C@@H](N2C(=O)OC[C@@H]2c2ccccc2)[C@H]1/C=C/c1cccc(Cl)c1 [Example 243]
IC50: 0.5 nM
Ki: 0.3 nM

Structure (SMILES): O=C(NC1(c2ccccc2)CCCC1)[C@H](CCC(=O)N1CCN(C2CCCCC2)CC1)N1C(=O)[C@@H](N2C(=O)OC[C@@H]2c2ccccc2)[C@H]1/C=C/c1cccc(Cl)c1 [Example 244]
IC50: 3.4 nM
Ki: 2.1 nM

Structure (SMILES): O=C(N[C@@H]1CCCc2ccccc21)[C@H](CCC(=O)N1CCN(C2CCCCC2)CC1)N1C(=O)[C@@H](N2C(=O)OC[C@@H]2c2ccccc2)[C@H]1/C=C/c1cccc(F)c1 [Example 245]
IC50: 1.1 nM
Ki: 0.68 nM

Structure (SMILES): O=C(N[C@@H]1CCCc2ccccc21)[C@H](CCC(=O)N1CCN(C2CCCCC2)CC1)N1C(=O)[C@@H](N2C(=O)OC[C@@H]2c2ccccc2)[C@H]1/C=C/c1cccc(C(F)(F)F)c1 [Example 246]
IC50: 2.1 nM
Ki: 1.3 nM

Structure (SMILES): N#Cc1cccc(/C=C/[C@@H]2[C@H](N3C(=O)OC[C@@H]3c3ccccc3)C(=O)N2[C@@H](CCC(=O)N2CCN(C3CCCCC3)CC2)C(=O)N[C@@H]2CCCc3ccccc32)c1 [Example 248]
IC50: 5.3 nM
Ki: 3.3 nM

Structure (SMILES): O=C(N[C@@H]1CCCc2ccccc21)[C@H](CCC(=O)N1CCN(C2CCCCC2)CC1)N1C(=O)[C@@H](N2C(=O)OC[C@@H]2c2ccccc2)[C@H]1/C=C/c1cccc([N+](=O)[O-])c1 [Example 249]
IC50: 1.7 nM
Ki: 1 nM

The remaining lines, values ahead:

Ki: 2.7 nM
Structure (SMILES): O=C(NC1(c2cccc(F)c2)CCCC1)C(CCC(=O)N1CCN(C2CCCCC2)CC1)N1C(=O)C(N2C(=O)OCC2c2ccccc2)C1C=Cc1ccccc1 (stereo not drawn) [Example 221AM]

IC50: 83 nM
Ki: 51 nM
Structure (SMILES): CC(C)(C)OC(=O)NC1CCN(C2CCN(C(=O)CCC(C(=O)NC3(c4ccccc4)CCCC3)N3C(=O)C(N4C(=O)OCC4c4ccccc4)C3C=Cc3ccccc3)CC2)C1 (stereo not drawn) [Example 221AX]

IC50: 2.71 nM
Ki: 1.66 nM
Structure (SMILES): Cc1cccc(CN(C)C(=O)C(CCC(=O)N2CCN(C3CCCCC3)CC2)N2C(=O)C(N3C(=O)OCC3c3ccccc3)C2C=Cc2ccccc2)c1 (stereo not drawn) [Example 221A]

IC50: 2.7 nM
Ki: 1.66 nM
Structure (SMILES): CCN1CCN(C(=O)CCC(C(=O)NC2CCCc3ccccc32)N2C(=O)C(N3C(=O)OCC3c3ccccc3)C2C=Cc2ccccc2)CC1 (stereo not drawn) [Example 221BD]

IC50: 56 nM
Ki: 35 nM
Structure (SMILES): O=C(NC1CCCc2ccccc21)C(CCC(=O)N1CCN(CCCO)CC1)N1C(=O)C(N2C(=O)OCC2c2ccccc2)C1C=Cc1ccccc1 (stereo not drawn) [Example 221BI]

IC50: 0.59 nM
Ki: 0.36 nM
Structure (SMILES): CN(Cc1cccc(Cl)c1Cl)C(=O)C(CCC(=O)N1CCN(C2CCCCC2)CC1)N1C(=O)C(N2C(=O)OCC2c2ccccc2)C1C=Cc1ccccc1 (stereo not drawn) [Example 221B]

IC50: 3 nM
Ki: 1.84 nM
Structure (SMILES): CN(Cc1cccc(Cl)c1)C(=O)C(CCC(=O)N1CCN(C2CCCCC2)CC1)N1C(=O)C(N2C(=O)OCC2c2ccccc2)C1C=Cc1ccccc1 (stereo not drawn) [Example 221C]

IC50: 2.41 nM
Ki: 1.48 nM
Structure (SMILES): CN(Cc1cccc(Br)c1)C(=O)C(CCC(=O)N1CCN(C2CCCCC2)CC1)N1C(=O)C(N2C(=O)OCC2c2ccccc2)C1C=Cc1ccccc1 (stereo not drawn) [Example 221D]

IC50: 20.2 nM
Ki: 12.4 nM
Structure (SMILES): CN(Cc1cc(Cl)cc(Cl)c1)C(=O)C(CCC(=O)N1CCN(C2CCCCC2)CC1)N1C(=O)C(N2C(=O)OCC2c2ccccc2)C1C=Cc1ccccc1 (stereo not drawn) [Example 221E]

IC50: 1.7 nM
Ki: 1.04 nM
Structure (SMILES): C[C@@H](NC(=O)[C@H](CCC(=O)N1CCN(C2CCCCC2)CC1)N1C(=O)[C@@H](N2C(=O)OC[C@@H]2c2ccccc2)[C@H]1/C=C/c1ccccc1)c1cccc(C(F)(F)F)c1 [Example 221F]

IC50: 4 nM
Ki: 2.5 nM
Structure (SMILES): O=C(NC1(c2ccccc2F)CCCC1)C(CCC(=O)N1CCN(C2CCCCC2)CC1)N1C(=O)C(N2C(=O)OCC2c2ccccc2)C1C=Cc1ccccc1 (stereo not drawn) [Example 221H]

IC50: 12 nM
Ki: 7.4 nM
Structure (SMILES): O=C(NC1(c2ccc(F)cc2)CCCC1)C(CCC(=O)N1CCN(C2CCCCC2)CC1)N1C(=O)C(N2C(=O)OCC2c2ccccc2)C1C=Cc1ccccc1 (stereo not drawn) [Example 221I]

IC50: 8.4 nM
Ki: 5.1 nM
Structure (SMILES): O=C(CCC(C(=O)N1CCc2ccccc2C1)N1C(=O)C(N2C(=O)OCC2c2ccccc2)C1C=Cc1ccccc1)N1CCN(C2CCCCC2)CC1 (stereo not drawn) [Example 221O]

IC50: 18.1 nM
Ki: 11.1 nM
Structure (SMILES): O=C(NC(CCO)c1ccccc1)C(CCC(=O)N1CCN(C2CCCCC2)CC1)N1C(=O)C(N2C(=O)OCC2c2ccccc2)C1C=Cc1ccccc1 (stereo not drawn) [Example 221Q]

IC50: 5.03 nM
Ki: 3.08 nM
Structure (SMILES): O=C(NC1CCc2ccccc21)C(CCC(=O)N1CCN(C2CCCCC2)CC1)N1C(=O)C(N2C(=O)OCC2c2ccccc2)C1C=Cc1ccccc1 (stereo not drawn) [Example 221S]

IC50: 11.6 nM
Ki: 7.2 nM
Structure (SMILES): O=C(CCC(C(=O)NC1CCCc2ccccc21)N1C(=O)C(N2C(=O)OCC2c2ccccc2)C1C=Cc1ccccc1)NCCN1CCCCC1 (stereo not drawn) [Example 221X]

IC50: 7.6 nM
Ki: 4.7 nM
Structure (SMILES): O=C(NC1CCCc2ccccc21)C(CCC(=O)N1CCCC1CN1CCCC1)N1C(=O)C(N2C(=O)OCC2c2ccccc2)C1C=Cc1ccccc1 (stereo not drawn) [Example 221Y]

IC50: 12.7 nM
Ki: 7.8 nM
Structure (SMILES): CCCCN1CCN(C(=O)CCC(C(=O)NCc2cccc(C(F)(F)F)c2)N2C(=O)C(N3C(=O)OCC3c3ccccc3)C2C(Br)=Cc2ccccc2)CC1 (stereo not drawn) [Example 230L]

IC50: 2.04 nM
Ki: 1.25 nM
Structure (SMILES): O=C(C(COCc1ccccc1)N1C(=O)C(N2C(=O)OCC2c2ccccc2)C1C=Cc1ccccc1)N1CCN(C2CCCCC2)CC1 (stereo not drawn) [Example 232D]

IC50: 0.28 nM
Ki: 0.17 nM
Structure (SMILES): O=C([C@@H](COCc1ccccc1)N1C(=O)[C@@H](N2C(=O)OC[C@@H]2c2ccccc2)[C@H]1/C=C/c1ccccc1)N1CCC(CN2CCCCC2)CC1 [Example 232E]
